Data on 23 compounds can be found in patent publication US20260062443A1 (ALEXION PHARMACEUTICALS, INC., priority 2022, published 2026).

The assay deals with T1, Human complement C1s enzyme (Homo sapiens, UniProt P09871).
T1 sequence (P09871 438-688 limits assumed): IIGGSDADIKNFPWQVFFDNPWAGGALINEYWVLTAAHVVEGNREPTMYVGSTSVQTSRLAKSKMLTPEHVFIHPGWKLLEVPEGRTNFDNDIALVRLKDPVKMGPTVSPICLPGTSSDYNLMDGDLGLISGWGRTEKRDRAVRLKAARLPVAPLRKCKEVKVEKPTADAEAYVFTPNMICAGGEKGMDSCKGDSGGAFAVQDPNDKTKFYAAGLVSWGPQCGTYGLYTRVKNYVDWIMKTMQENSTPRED
T1 sequence (P09871 16-437 partner limits assumed): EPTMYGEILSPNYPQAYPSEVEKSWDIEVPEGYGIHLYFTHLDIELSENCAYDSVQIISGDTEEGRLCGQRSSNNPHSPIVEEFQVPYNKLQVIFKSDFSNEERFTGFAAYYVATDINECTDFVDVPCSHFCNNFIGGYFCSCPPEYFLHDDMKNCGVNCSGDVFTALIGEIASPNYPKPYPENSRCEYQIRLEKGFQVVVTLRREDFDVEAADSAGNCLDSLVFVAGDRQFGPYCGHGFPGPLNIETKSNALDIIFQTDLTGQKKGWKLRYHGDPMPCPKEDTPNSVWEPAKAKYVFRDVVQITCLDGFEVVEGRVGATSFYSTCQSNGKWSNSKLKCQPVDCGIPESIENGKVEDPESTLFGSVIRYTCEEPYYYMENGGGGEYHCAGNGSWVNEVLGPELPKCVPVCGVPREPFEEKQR
The assay is described as follows: Human C1s enzyme assay. It counts as biochemical. Conditions: human complement C1s enzyme 1.16 nM, substrate Z-L-Lys-SBzl 100 μM, 5 min preincubation; read-out: IC50 (Stars), C1s Inhibiting Activity. An outline of the steps:
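Serum-purified human C1s (1.16 nM final) preincubated 5 min at room temperature with compound in 50 mM Tris, 1 M NaCl, pH 7.5. Z-L-Lys-SBzl and DTNB added at 100 μM each; A405 followed every 30 s for 30 min, and IC50 obtained by nonlinear regression of reaction rates.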

SMILES strings stand for the structures. Bounds are passed on as bounds.

For `O=C(NCC(=O)N1C[C@H](OC(F)F)C[C@H]1C(=O)NCc1cc2cnccc2[nH]1)c1cccc(Oc2ccccc2F)c1` [Compound 299, (2S,4R)-N-((1H-pyrrolo[3,2-c]pyridin-2-yl)methyl)-4-(difluoromethoxy)-1-((3-(2-fluorophenoxy)benzoyl)glycyl) pyrrolidine-2-carboxamide], the IC50 is less than 0.1 µM.
As to `C[C@@H](NC(=O)[C@@H]1C[C@@H](OC(F)F)CN1C(=O)CN1Cc2cc(-c3ccc(F)cc3F)ccc2C1=O)c1cc2cnccc2[nH]1` [Compound 91, (2S,4R)-N-((R)-1-(1H-pyrrolo[3,2-c]pyridin-2-yl)ethyl)-4-(difluoromethoxy)-1-(2-(5-(2,4-difluorophenyl)-1-oxoisoindolin-2-yl)acetyl)pyrrolidine-2-carboxamide], the IC50 is less than 0.1 µM.
In the case of `O=C(NCC(=O)N1C[C@H](OC(F)F)C[C@H]1C(=O)NCc1cc2cnccc2[nH]1)c1ccc(F)c(Oc2ccsc2)c1` [Compound 317, (2S,4R)-4-(difluoromethoxy)-1-[2-[[4-fluoro-3-(3-thienyloxy)benzoyl]amino]acetyl]-N-(1H-pyrrolo[3,2-c]pyridin-2-ylmethyl)pyrrolidine-2-carboxamide] it was less than 0.1 µM; in that of `C[C@@]12C[C@@H]1N(C(=O)CNC(=O)c1ccc(Oc3ccccc3)cn1)[C@H](C(=O)NCc1cc3cnccc3[nH]1)C2` [Compound 136, (1S,3S,5S)-N-((1H-pyrrolo[3,2-c]pyridin-2-yl)methyl)-5-methyl-2-((5-phenoxypicolinoyl)glycyl)-2-azabicyclo[3.1.0]hexane-3-carboxamide], 0.1 to 1 µM.
In the case of `C[C@@]12C[C@@H]1N(C(=O)CNC(=O)CCCOc1ccccc1)[C@H](C(=O)NCc1cnc3c(CN)cccn13)C2` [Compound 63, (1S,3S,5S)-N-((8-(aminomethyl)imidazo[1,2-a]pyridin-3-yl)methyl)-5-methyl-2-((4-phenoxybutanoyl)glycyl)-2-azabicyclo[3.1.0]hexane-3-carboxamide] it was greater than 1 µM; in that of `O=C(NCC(=O)N1C[C@H](OC(F)F)C[C@H]1C(=O)NCc1cc2cnccc2[nH]1)c1ccc(F)c(Oc2ccccc2)c1` [Compound 304, (2S,4R)-N-((1H-pyrrolo[3,2-c]pyridin-2-yl)methyl)-4-(difluoromethoxy)-1-((4-fluoro-3-phenoxybenzoyl)glycyl)pyrrolidine-2-carboxamide], less than 0.1 µM.
On to `COC[C@@]1(F)C[C@@H](C(=O)NCc2cc3cnccc3[nH]2)N(C(=O)CNC(=O)c2ccc3c(c2)-c2ccccc2C3(F)F)C1` [Compound 5, (2S,4R)-N-((1H-pyrrolo[3,2-c]pyridin-2-yl)methyl)-1-((9,9-difluoro-9H-fluorene-3-carbonyl)glycyl)-4-fluoro-4-(methoxymethyl)pyrrolidine-2-carboxamide], for which the concentration for half-maximal inhibition (IC50) was less than 0.1 µM.
For the compound `O=C(NCC(=O)N1CC2(C[C@H]1C(=O)NCc1cc3cc(Cl)ccc3[nH]1)OCCO2)c1ccc2c(c1)Oc1ccccc1S2` [Compound 19, (S)-N-((5-chloro-1H-indol-2-yl)methyl)-7-((phenoxathiine-3-carbonyl)glycyl)-1,4-dioxa-7-azaspiro[4.4]nonane-8-carboxamide], the IC50 is greater than 1 µM.
Take `Cc1ccc(Oc2cccc(C(=O)NCC(=O)N3CC4(C[C@H]3C(=O)NCc3cc5cnccc5[nH]3)OCCO4)c2)c(F)c1` [Compound 307, (S)-N-((1H-pyrrolo[3,2-c]pyridin-2-yl)methyl)-7-((3-(2-fluoro-4-methylphenoxy)benzoyl)glycyl)-1,4-dioxa-7-azaspiro[4.4]nonane-8-carboxamide]: the IC50 was less than 0.1 µM.
For `O=C(NCC(=O)N1C[C@H](OC(F)F)C[C@H]1C(=O)NCc1ccc2[nH]cnc2n1)c1ccc2c(c1)Oc1ccccc1S2` [Compound 258, (2S,4R)-N-((1H-imidazo[4,5-b]pyridin-5-yl)methyl)-4-(difluoromethoxy)-1-((phenoxathiine-3-carbonyl)glycyl)pyrrolidine-2-carboxamide], the IC50 was greater than 1 µM.
In the case of `O=C(NCC(=O)N1CC2(C[C@H]1C(=O)NCc1cc3cnccc3[nH]1)OCCO2)c1cccc(Oc2ccccc2)c1` [Compound 144, (S)-N-((1H-pyrrolo[3,2-c]pyridin-2-yl)methyl)-7-((3-phenoxybenzoyl)glycyl)-1,4-dioxa-7-azaspiro[4.4]nonane-8-carboxamide] it was less than 0.1 µM.
Regarding `O=C(NCC(=O)N1C[C@H](OC(F)F)C[C@H]1C(=O)NCc1ccc2ncsc2c1)c1ccc2c(c1)Oc1ccccc1S2` [Compound 245, (2S,4R)-N-(benzo[d]thiazol-6-ylmethyl)-4-(difluoromethoxy)-1-((phenoxathiine-3-carbonyl)glycyl)pyrrolidine-2-carboxamide], the IC50 is greater than 1 µM.
On to `C[C@@H](NC(=O)[C@@H]1CC(Cn2ccnc2)CN1C(=O)CNC(=O)c1ccc2c(c1)Oc1ccccc1S2)c1cc2cnccc2[nH]1` (stereo partly drawn) [Compound 184, (2S)-4-((1H-imidazol-1-yl)methyl)-N-((R)-1-(1H-pyrrolo[3,2-c]pyridin-2-yl)ethyl)-1-((phenoxathiine-3-carbonyl)glycyl)pyrrolidine-2-carboxamide], for which the IC50 was less than 0.1 µM.
`Cc1ccc(-c2cnc(C(=O)NCC(=O)N3CC4(C[C@H]3C(=O)N[C@H](C)c3cc5cnccc5[nH]3)OCCO4)c(F)c2)cc1` [Compound 115, (S)-N-((R)-1-(1H-pyrrolo[3,2-c]pyridin-2-yl)ethyl)-7-((3-fluoro-5-(p-tolyl)picolinoyl)glycyl)-1,4-dioxa-7-azaspiro[4.4]nonane-8-carboxamide]: the IC50 is greater than 1 µM.
As for `CCc1ccc(Oc2cc(F)cc(C(=O)NCC(=O)N3C[C@H](OC(F)F)C[C@H]3C(=O)NCc3cc4cnccc4[nH]3)c2)cc1` [Compound 370, (2S,4R)-N-((1H-pyrrolo[3,2-c]pyridin-2-yl)methyl)-4-(difluoromethoxy)-1-((3-(4-ethylphenoxy)-5-fluorobenzoyl)glycyl)pyrrolidine-2-carboxamide], the figure is less than 0.1 µM; as for `Cc1ccc(-c2ccc3c(c2)CN(CC(=O)N2C[C@H](OC(F)F)C[C@H]2C(=O)N[C@H](C)c2cc4cnccc4[nH]2)C3=O)cc1` [Compound 105, (2S,4R)-N-((R)-1-(1H-pyrrolo[3,2-c]pyridin-2-yl)ethyl)-4-(difluoromethoxy)-1-(2-(1-oxo-5-(p-tolyl)isoindolin-2-yl)acetyl)pyrrolidine-2-carboxamide], less than 0.1 µM; as for `C[C@@H](NC(=O)[C@@H]1CC2(CN1C(=O)CNC(=O)c1ccc(-c3ccccc3)cn1)OCCO2)c1cc2cnccc2[nH]1` [Compound 114, (S)-N-((R)-1-(1H-pyrrolo[3,2-c]pyridin-2-yl)ethyl)-7-((5-phenylpicolinoyl)glycyl)-1,4-dioxa-7-azaspiro[4.4]nonane-8-carboxamide], 0.1 to 1 µM.
In the case of `O=C(NCC(=O)N1CC2(C[C@H]1C(=O)NCc1cc3cnccc3s1)OCCO2)c1cccc(Oc2ccccc2)c1` [Compound 256, (S)-7-((3-phenoxybenzoyl)glycyl)-N-(thieno[3,2-c]pyridin-2-ylmethyl)-1,4-dioxa-7-azaspiro[4.4]nonane-8-carboxamide] it was less than 0.1 µM; in that of `O=C(NCC(=O)N1CC2(C[C@H]1C(=O)NCc1cc3cnccc3[nH]1)OCCO2)c1ccc(C(=O)c2ccccc2)cc1` [Compound 33, (S)-N-((1H-pyrrolo[3,2-c]pyridin-2-yl)methyl)-7-((4-benzoylbenzoyl)glycyl)-1,4-dioxa-7-azaspiro[4.4]nonane-8-carboxamide], less than 0.1 µM; in that of `Cc1ccc(Oc2cccc(C(=O)NCC(=O)N3C[C@H](OC(F)F)C[C@H]3C(=O)NCc3cc4cnccc4[nH]3)c2)c(Cl)c1` [Compound 292, (2S,4R)-N-((1H-pyrrolo[3,2-c]pyridin-2-yl)methyl)-1-((3-(2-chloro-4-methylphenoxy)benzoyl)glycyl)-4-(difluoromethoxy)pyrrolidine-2-carboxamide], less than 0.1 µM.
In the case of `C[C@@H](NC(=O)[C@@H]1C[C@@H](OC(F)F)CN1C(=O)CNC(=O)c1ccc2c(c1)Oc1ccccc1S2)c1cc2cnccc2s1` [Compound 208, (2S,4R)-4-(difluoromethoxy)-1-((phenoxathiine-3-carbonyl)glycyl)-N-((R)-1-(thieno[3,2-c]pyridin-2-yl)ethyl)pyrrolidine-2-carboxamide] it was less than 0.1 µM.
For `C[C@@H](NC(=O)[C@@H]1C[C@@H](OC(F)(F)F)CN1C(=O)CNC(=O)c1ccc2c(c1)Oc1ccccc1S2)c1cc2cnccc2[nH]1` [Compound 251, (2S,4R)-N-((R)-1-(1H-pyrrolo[3,2-c]pyridin-2-yl)ethyl)-1-((phenoxathiine-3-carbonyl)glycyl)-4-(trifluoromethoxy)pyrrolidine-2-carboxamide], the IC50 was less than 0.1 µM.
Take `COC[C@@]1(F)C[C@@H](C(=O)NCc2cc3cnccc3[nH]2)N(C(=O)CNC(=O)c2ccc3oc4ccccc4c3c2)C1` [Compound 201, (2S,4R)-N-((1H-pyrrolo[3,2-c]pyridin-2-yl)methyl)-1-((dibenzo[b,d]furan-2-carbonyl)glycyl)-4-fluoro-4-(methoxymethyl)pyrrolidine-2-carboxamide]: the IC50 was less than 0.1 µM.
